Assay: log P by LC-MS, method [b], acid range pH 2.7
Format: physicochemical
Conditions: pH 2.7
Description: The log P values were measured in accordance with EEC Directive 79/831 Annex V.A8 by HPLC (High Performance Liquid Chromatography) on reversed-phase columns (C 18) using the methods below:
[b] The LC-MS determination in the acid range was carried out at pH 2.7 using the mobile phases 0.1% aqueous formic acid and acetonitrile (contains 0.1% formic acid)
linear gradient from 10% acetonitrile to 95% acetonitrile.

Row | Structure (SMILES) | log p
1 | O=C1COCCN1c1cccc(Nc2ncc(Br)c(NCC(F)F)n2)c1 [Example 166] | 1.51[b]
2 | O=C1OCCN1c1cccc(Nc2ncc(Cl)c(NCC(F)F)n2)c1 [Example 154] | 1.63[b]
3 | O=C1COCCN1c1cccc(Nc2ncc(Cl)c(NCC(F)F)n2)c1 [Example 159] | 1.46[b]
4 | CCCNc1nc(Nc2cccc(N3CCCC3=O)c2)ncc1Cl [Example 307] | 1.49[b]
5 | CC(C)[C@@H]1COC(=O)N1c1cccc(Nc2ncc(Cl)c(NC3CCC3)n2)c1 [Example 101] | 2.38[b]
6 | CC1COC(=O)N1c1cccc(Nc2ncc(Cl)c(NCC3CC3)n2)c1 (stereo not drawn) [Example 116] | 1.64[b]
7 | CC1CCC(=O)N1c1cccc(Nc2ncc(Cl)c(NCC(F)F)n2)c1 (stereo not drawn) [Example 160] | 1.81[b]
8 | CC1CC(C)N(c2cccc(Nc3ncc(Br)c(NC4CCC4)n3)c2)C1=O (stereo not drawn) [Example 85] | 2.3[b]
9 | CC(C)C1COC(=O)N1c1cccc(Nc2ncc(Br)c(NCC3CC3)n2)c1 (stereo not drawn) [Example 128] | 2.28[b]
10 | O=C1CCCN1c1cccc(Nc2ncc(C(F)(F)F)c(N3CCCCC3)n2)c1 [Example 320] | 3.29[b]
11 | CC1COC(=O)N1c1cccc(Nc2ncc(Br)c(NCC(F)F)n2)c1 (stereo not drawn) [Example 163] | 1.88[b]
12 | CC(C)Nc1nc(Nc2cccc(N3C(=O)CC(C)C3=O)c2)ncc1Br (stereo not drawn) [Example 153] | 1.68[b]
13 | CC1(C)CC(=O)N(c2cccc(Nc3ncc(Cl)c(NC4CCC4)n3)c2)C1=O [Example 29] | 2.07[b]
14 | CCC1CC1Nc1nc(Nc2cccc(N3CCCC3=O)c2)ncc1Cl (stereo not drawn) [Example 242] | 1.99[b]
15 | CN1CCN(c2cccc(Nc3ncc(I)c(NC4CC4)n3)c2)C1=O [Example 296] | 1.57[b]
16 | O=C1CCCN1c1cc(Nc2ncc(C(F)(F)F)c(NCC3CC3)n2)ccc1F [Example 201] | 2.41[b]
17 | CC(C)Nc1nc(Nc2cccc(N3CCOCC3=O)c2)ncc1Br [Example 151] | 1.47[b]
18 | CC1COC(=O)N1c1ccc(Nc2ncc(Cl)c(NCC(F)F)n2)cc1 (stereo not drawn) [Example 158] | 1.68[b]
19 | CC1COC(=O)N1c1ccc(Nc2ncc(Br)c(NCC(F)F)n2)cc1 (stereo not drawn) [Example 165] | 1.78[b]
20 | O=C1OCCN1c1cccc(Nc2ncc(Cl)c(NCC(F)(F)F)n2)c1 [Example 175] | 2.01[b]
21 | O=C1OCC(c2ccccc2)N1c1cccc(Nc2ncc(Cl)c(NC3CC3)n2)c1 (stereo not drawn) [Example 88] | 2.27[b]

Row | Structure (SMILES) | log p
22 | CC1CC(Nc2nc(Nc3cccc(N4CCN(C)C4=O)c3)ncc2Br)C1 (stereo not drawn) [Example 290] | 2[b]
23 | COCC(C)Nc1nc(Nc2ccc(N3CCOC3=O)cc2)ncc1Cl (stereo not drawn) [Example 12] | 1.46[b]
24 | CC1CCN(c2cccc(Nc3ncc(Cl)c(NC4CCC4)n3)c2)C1=O (stereo not drawn) [Example 113] | 2.01[b]
25 | CCC1COC(=O)N1c1cccc(Nc2ncc(Br)c(NC3CCC3)n2)c1 (stereo not drawn) [Example 34] | 2.24[b]
26 | O=C1COCCN1c1cccc(Nc2ncc(Cl)c(NCC(F)(F)F)n2)c1 [Example 173] | 1.73[b]
27 | CC(C)Nc1nc(Nc2cccc(N3C(=O)CC(C)(C)C3=O)c2)ncc1Br [Example 148] | 1.93[b]
28 | CN1CCN(c2cccc(Nc3ncc(C(F)(F)F)c(NC4CC4)n3)c2)C1=O [Example 293] | 2.22[b]
29 | CC1(C)CN(c2cccc(Nc3ncc(Br)c(NC4CC4)n3)c2)C1=O [Example 52] | 2.18[b]
30 | CC(C)[C@H]1COC(=O)N1c1cccc(Nc2ncc(Cl)c(NCC(F)(F)F)n2)c1 [Example 111] | 2.81[b]
31 | CC(C)Nc1nc(Nc2ccc(N3C(=O)OCC3C)cc2)ncc1Cl (stereo not drawn) [Example 142] | 1.61[b]
32 | COCC(C)Nc1nc(Nc2cccc(N3CCOC3=O)c2)ncc1Cl (stereo not drawn) [Example 67] | 1.54[b]
33 | CC(C)Nc1nc(Nc2cccc(N3C(=O)OCC3C(C)C)c2)ncc1Br (stereo not drawn) [Example 129] | 2.24[b]
34 | COCC(C)Nc1nc(Nc2cccc(N3C(=O)OC[C@@H]3C(C)C)c2)ncc1Cl (stereo partly drawn) [Example 117] | 2.1[b]
35 | O=C1CCCN1c1cccc(Nc2ncc(Cl)c(NC3CCCC3)n2)c1 [Example 42] | 1.92[b]
36 | CCC1CCC(=O)N1c1cccc(Nc2ncc(C(F)(F)F)c(NC3CC3)n2)c1 (stereo not drawn) [Example 255] | 2.75[b]
37 | CC1CC(C)N(c2cccc(Nc3ncc(Cl)c(NC4CCC4)n3)c2)C1=O (stereo not drawn) [Example 80] | 2.2[b]
38 | CC(C)C1COC(=O)N1c1cccc(Nc2ncc(Br)c(NCC(F)F)n2)c1 (stereo not drawn) [Example 130] | 2.5[b]
39 | O=C1OCCN1c1cccc(Nc2ncc(Br)c(NC3CCC3)n2)c1 [Example 72] | 1.8[b]
40 | O=C1CCCN1c1cccc(Nc2ncc(Cl)c(N3CCCC3)n2)c1 [Example 222] | 1.67[b]
41 | CC1CC(=O)N(c2cccc(Nc3ncc(Cl)c(NCC(F)F)n3)c2)C1=O (stereo not drawn) [Example 161] | 1.68[b]
42 | CC1CC(=O)N(c2cccc(Nc3ncc(Cl)c(NC4CCC4)n3)c2)C1 (stereo not drawn) [Example 97] | 2.02[b]

Row | Structure (SMILES) | log p
43 | CN(c1nc(Nc2cccc(N3CCCC3=O)c2)ncc1C(F)(F)F)C1CCCC1 [Example 319] | 3.56[b]
44 | CC(C)Nc1nc(Nc2cccc(N3C(=O)OC[C@@H]3C(C)C)c2)ncc1Cl [Example 110] | 2.1[b]
45 | CC1CC(=O)N(c2cccc(Nc3ncc(Cl)c(N(C)C4CC4)n3)c2)C1=O (stereo not drawn) [Example 182] | 2.21[b]
46 | O=C1OCCN1c1ccc(Nc2ncc(Cl)c(NCC(F)(F)F)n2)cc1 [Example 23] | 1.83[b]
47 | CC1CC(=O)N(c2cccc(Nc3ncc(Br)c(NCC4CC4)n3)c2)C1=O (stereo not drawn) [Example 74] | 1.78[b]
48 | CC1COC(=O)N1c1ccc(Nc2ncc(Cl)c(NCC(F)(F)F)n2)cc1 (stereo not drawn) [Example 172] | 2.06[b]
49 | C[C@@H]1C[C@H](C)N(c2cccc(Nc3ncc(Br)c(NCC(F)F)n3)c2)C1=O [Example 189] | 3.24[b]
50 | C[C@H]1COC(=O)N1c1cccc(Nc2ncc(Br)c(NC3CC3)n2)c1 [Example 95] | 1.65[b]
51 | C[C@@H]1COC(=O)N1c1cccc(Nc2ncc(Br)c(NC3CC3)n2)c1 [Example 104] | 2.03[b]
52 | COCC(C)Nc1nc(Nc2ccc(N3C(=O)OCC3C)cc2)ncc1Cl (stereo not drawn) [Example 3] | 1.54[b]
53 | CC1COC(=O)N1c1cccc(Nc2ncc(Cl)c(N(C)C3CC3)n2)c1 (stereo not drawn) [Example 176] | 2.29[b]
54 | COCC(C)Nc1nc(Nc2cccc(N3CCCC3=O)c2)ncc1Br (stereo not drawn) [Example 5] | 1.6[b]
55 | COCC(C)Nc1nc(Nc2ccc(N3C(=O)OCC3C)cc2)ncc1Br (stereo not drawn) [Example 4] | 1.61[b]
56 | CC(C)Nc1nc(Nc2cccc(N3C(=O)CCC3C)c2)ncc1Br (stereo not drawn) [Example 152] | 1.73[b]
57 | CC1CC(=O)N(c2cccc(Nc3ncc(Br)c(NCC(F)F)n3)c2)C1=O (stereo not drawn) [Example 168] | 1.78[b]
58 | O=C1OCC(c2ccccc2)N1c1cccc(Nc2ncc(Cl)c(NC3CCC3)n2)c1 (stereo not drawn) [Example 89] | 2.65[b]
59 | CC1COC(=O)N1c1cccc(Nc2ncc(Cl)c(NCC(F)F)n2)c1 (stereo not drawn) [Example 155] | 1.81[b]
60 | CC1CCC(=O)N1c1cccc(Nc2ncc(Cl)c(NCC(F)(F)F)n2)c1 (stereo not drawn) [Example 174] | 2.16[b]
61 | CC(C)[C@H]1COC(=O)N1c1cccc(Nc2ncc(Cl)c(NC3CCC3)n2)c1 [Example 100] | 2.38[b]
62 | CN(c1cccc(N2CCCC2=O)c1)c1ncc(Cl)c(NC2CCC2)n1 [Example 83] | 1.63[b]
63 | CC(C)Nc1nc(Nc2ccc(N3CCOC3=O)cc2)ncc1Cl [Example 64] | 1.49[b]

Row | Structure (SMILES) | log p
64 | CC1CC(=O)N(c2cccc(Nc3ncc(Br)c(NC4CC4)n3)c2)C1=O (stereo not drawn) [Example 66] | 1.78[b]
65 | CC(C)Nc1nc(Nc2cccc(N3CCOCC3=O)c2)ncc1Cl [Example 143] | 1.41[b]
66 | O=C1CCCCN1c1cccc(Nc2ncc(Br)c(NCC(F)F)n2)c1 [Example 135] | 1.75[b]
67 | CC(C)Nc1nc(Nc2cccc(N3CCCCC3=O)c2)ncc1Cl [Example 114] | 1.46[b]
68 | CC1(C)CC(=O)N(c2cccc(Nc3ncc(Br)c(NCC(F)F)n3)c2)C1=O [Example 164] | 2.08[b]
69 | CC1CCC(=O)N1c1cccc(Nc2ncc(Cl)c(NC3CCC3)n2)c1 (stereo not drawn) [Example 37] | 1.83[b]
70 | CC1CC(Nc2nc(Nc3cccc(N4C(=O)CCC4=O)c3)ncc2Br)C1 (stereo not drawn) [Example 288] | 1.86[b]
71 | CC1COC(=O)N1c1ccc(Nc2ncc(Cl)c(N(C)C3CC3)n2)cc1 (stereo not drawn) [Example 179] | 2.16[b]
72 | CC(C)Nc1nc(Nc2cccc(N3CCCCC3=O)c2)ncc1Br [Example 134] | 1.57[b]
73 | CC1(C)CC(=O)N(c2cccc(Nc3ncc(Cl)c(NCC(F)(F)F)n3)c2)C1=O [Example 170] | 2.36[b]
74 | CC1CC(=O)N(c2cccc(Nc3ncc(Cl)c(NC4CC4)n3)c2)C1 (stereo not drawn) [Example 96] | 1.75[b]
75 | O=c1ccccn1-c1cccc(Nc2ncc(Cl)c(NC3CCC3)n2)c1 [Example 16] | 2.17[b]
76 | CC1CC1Nc1nc(Nc2cccc(N3CCOC3=O)c2)ncc1Cl (stereo not drawn) [Example 205] | 1.67[b]
77 | CC(C)Nc1nc(Nc2cccc(N3C(=O)OCC3C)c2)ncc1Br (stereo not drawn) [Example 147] | 1.73[b]
78 | CC1CC(Nc2nc(Nc3cccc(N4C(=O)CCC4C)c3)ncc2Br)C1 (stereo not drawn) [Example 317] | 2.17[b]
79 | CC1CCC(=O)N1c1cccc(Nc2ncc(Cl)c(N(C)C3CC3)n2)c1 (stereo not drawn) [Example 180] | 2.26[b]
80 | COCC(C)Nc1nc(Nc2cccc(N3CCOC3=O)c2)ncc1Br (stereo not drawn) [Example 69] | 1.61[b]
81 | O=c1ccccn1-c1cccc(Nc2ncc(Br)c(NC3CCC3)n2)c1 [Example 221] | 1.71[b]
82 | CC(C)Nc1nc(Nc2cccc(N3C(=O)CCC3C)c2)ncc1Cl (stereo not drawn) [Example 144] | 1.66[b]
83 | CC1CC(C)N(c2cccc(Nc3ncc(Cl)c(NCC(F)F)n3)c2)C1=O (stereo not drawn) [Example 157] | 2.11[b]
84 | CC1CCC(=O)N1c1cccc(Nc2ncc(Br)c(NCC3CC3)n2)c1 (stereo not drawn) [Example 133] | 1.77[b]
